{"source": "patent US20140243332A1", "about": "“METHODS OF TREATING CANCERS CHARACTERIZED BY ABERRENT ROS1 ACTIVITY” (Oregon Health & Science University, priority 2013, published 2014)", "key": {"Ba/F3 ALK F1174L cells": {"biological_target": "Ba/F3 ALK F1174L cells (Homo sapiens, UniProt Q9UM73, F1174L, cells depend on it)", "assay": "Cell viability (MTS) assay, Ba/F3 ALK F1174L", "assay_type": "cell-based", "conditions": "72 hours, read-out: IC50 (the source's name)"}, "PC9 cells": {"test_system": "PC9 cells", "assay": "Cell viability assay, PC9", "assay_type": "cell-based, human", "conditions": "PC9 cells (activated EGFR), FIG. 6B", "procedure": "IC50 was determined from non-linear regression curve fit analysis of the dose response curves."}, "[1]": {"test_system": "FIG-ROS murine cholangiocarcinoma tumor cells", "assay": "cells", "conditions": "Mus musculus, read-out: IC50 cell growth", "procedure": "(§1) Hepatoblasts of the genotype AlbCre^+/−; Isl Kras^G12D+/−; p53^R172H/loxp were isolated from ED14.5 mouse embryos and retrovirally transduced with either the FIG-ROS fusion, turbo RFP or a short hairpin RNA against Pten (shPten.1522). At 48 hours following transduction, 1×10^6 cells were resuspended in 25 μl Matrigel and injected sub-capsular into the livers of immune-deficient mice. Upon tumor formation, tumors were explanted and subjected to collagenase digestion. Digests were plated onto gelatin-coated plates. Tumor cells were enriched by either differential trypsinization or cell sorting. […] These four cell lines were further cultured and maintained in DMEM-High glucose medium supplemented with 10% FCS, L-glutamine and penicillin/streptomycin.\n(§2) Cell lines were distributed in 96-well plates and incubated with the indicated concentrations of inhibitor for 72 hours. […] Ba/F3 cell lines were plated at 4×10^3 cells/well. HCC78 and mCC cell lines were plated at 1.5×10^3 cells/well. All cell types were seeded in a final volume of 80 microliters. A 20 microliter volume of five-fold concentrated inhibitor media was added. Cell proliferation was measured using a […] viability assay (CellTiter96 Aqueous One® Solution; Promega). A BioTek Synergy 2® plate reader was used to read the absorbance at 490 nm at 30 minutes and 1 hour after addition of MTS. To facilitate comparison between experiments, the raw MTS absorbance of vehicle (0.1% DMSO) treated cells was set to 1 and absorbance from inhibitor treated wells was normalized to the vehicle treated value. […] Data were normalized using Microsoft Excel® and further non-linear regression curve fit analysis of the normalized data for determination of IC50 was performed using Graphpad Prism® software.\n(§3) To directly assess inhibition of FIG-ROS phosphorylation, immunoblot analyses of lysates from vehicle or inhibitor-treated cells were performed."}, "[2]": {"test_system": "shPten murine cholangiocarcinoma tumor cells", "assay": "cells", "conditions": "Mus musculus, read-out: IC50 cell growth", "procedure": "as §1, §2, §3"}, "[3]": {"test_system": "FIG-ROS and ROS-1 effector pathway phosphorylation", "assay": "Immunoblot of FIG-ROS tumor lysates after oral gavage", "assay_type": "in vivo, mice", "conditions": "25 mg/kg oral gavage", "procedure": "FIG. 3D is an image of an immunoblot of tumor lysates probed for phosphorylated and total ROS1, phosphorylated and total Shpt, phosphorylated and total Stat3, phosphorylated and total Src as well as tubulin as a loading control.\n(§4) Ba/F3 FIG-ROS, Ba/F3 SLC-ROS, HCC78 and mCC cell lines were treated with the indicated concentration of inhibitors for 1-2 hours. […] The protein content of the cell lysates was determined and lysates were either used for immunoprecipitation where indicated or extracted with SDS Sample buffer for 15 minutes at 80° C. Proteins were transferred to Immobilon-FL membranes and immunoblotted with antibodies specific for phospho-ROS1 (Cell Signaling Technology (CST) #3078), total ROS1 (CST #3266), phopsho-Shp2 (CST #3751), total Shpt (CST #3752), phospho-Stat3 (CST #9145), total Stat3 (CST #4904), phospho-Erk1/2 (CST #9101), total Erk2 (Santa Cruz #SC-1647), phospho-S6 (CST #4858), total S6 (CST #2216), phospho-Src (CST #2105), total Src (CST #2110), α-tubulin (Sigma T6199), or β-actin (Sigma A1978) as indicated. Images of the blots were generated by the LI-COR Odyssey® imaging system, following the manufacturer's protocol for immunoblot detection with use of IR-dye conjugated secondary antibodies.\nConcomitant with diminished FIG-ROS activation, phosphorylation of Shpt and Stat3, but not Src is inhibited in the treated tumors."}, "[4]": {"biological_target": "Ba/F3 FIG-ROS C2060G cells (Homo sapiens, UniProt P08922, C2060G, cells depend on it)", "assay": "Cell viability assay, Ba/F3 FIG-ROS C2060G", "assay_type": "cell-based", "conditions": "Table 3, Ba/F3 FIG-ROS C2060G; nM; read-out: IC50 (the source's name)", "procedure": "as §2\n(§5) The FIG-ROS-S fusion gene was synthesized using the GeneArt® service. FIG-ROS-S is denoted as FIG-ROS herein."}, "[5]": {"biological_target": "Ba/F3 FIG-ROS L1947R cells (Homo sapiens, UniProt P08922, L1947R, cells depend on it)", "assay": "Cell viability assay, Ba/F3 FIG-ROS L1947R", "assay_type": "cell-based", "conditions": "Table 3, Ba/F3 FIG-ROS L1947R; nM; read-out: IC50 (the source's name)", "procedure": "as §2, §5"}, "FIG-ROS": {"biological_target": "FIG-ROS (Homo sapiens, UniProt P08922)", "assay": "Immunoblot of Ba/F3 FIG-ROS lysates", "assay_type": "cell-based", "design": "expressed in transfected cells; host or cells: Ba/F3 (A14), retroviral pMSCV-IRES-GFP; the other entry of the earlier key: GOPC (Q9HD26, Golgi-associated PDZ and coiled-coil motif-containing protein)", "conditions": "Ba/F3 FIG-ROS cells, increasing amounts, immunoblot FIG. 1C", "procedure": "(§6) FIG. 1C is an image of an immunoblot of lysates of Ba/F3 FIG-ROS and Ba/F3 SLC-ROS and the indicated downstream effectors after treatment with the indicated compounds. Images shown are representative of three independent experiments.\nas §4"}, "SLC-ROS": {"biological_target": "SLC-ROS (Homo sapiens, UniProt P08922)", "assay": "Immunoblot of Ba/F3 SLC-ROS lysates", "assay_type": "cell-based", "design": "SLC34A2 N-terminal portion, fusion partner; expressed in transfected cells; host or cells: Ba/F3 (A15), retroviral pMIG; the other entry of the earlier key: SLC34A2 (O95436, Sodium-dependent phosphate transport protein 2B)", "conditions": "Ba/F3 SLC-ROS cells, increasing amounts, immunoblot FIG. 1C", "procedure": "as §6, §4"}}}
{"smiles": "COc1cc2c(Oc3ccc(NC(=O)C4(C(=O)Nc5ccc(F)cc5)CC4)cc3F)ccnc2cc1OCCCN1CCOCC1", "note": "[foretinib, N1′-[3-fluoro-4-[[6-methoxy-7-(3-morpholinopropoxy)-4-quinolyl]oxy]phenyl]-N1-(4-fluorophenyl)cyclopropane-1,1-dicarboxamide]", "values": [{"measurement": "GI50", "setting": "Ba/F3 ALK F1174L cells", "result": 1800, "unit": "nM"}, {"measurement": "sensitivity of cell growth", "setting": "PC9 cells", "result": "relatively insensitive"}, {"measurement": "IC50", "setting": "[1]", "result": 300, "unit": "nM"}, {"measurement": "IC50", "setting": "[2]", "result": "> 2000", "unit": "nM"}, {"measurement": "intra-tumoral phosphorylation of Shpt and Stat3", "setting": "[3]; FIG-ROS tumors", "result": "is inhibited"}, {"measurement": "intra-tumoral phosphorylation of Src", "setting": "[3]; FIG-ROS tumors", "result": "but not Src"}, {"measurement": "intra-tumoral FIG-ROS phosphorylation", "setting": "[3]; tumors harvested at 1, 2, 4 and 8 hours", "result": "Rapid and robust inhibition"}, {"measurement": "GI50", "setting": "[4]", "result": 13.6, "unit": "nM"}, {"measurement": "GI50", "setting": "[5]", "result": 17.9, "unit": "nM"}, {"measurement": "autophosphorylation of FIG-ROS and ROS1-driven signaling (phospho-Shp2, phospho-ERK1/2)", "setting": "FIG-ROS", "result": "dose dependent decrease"}, {"measurement": "autophosphorylation of SLC-ROS and ROS1-driven signaling (phospho-Shp2, phospho-ERK1/2)", "setting": "SLC-ROS", "result": "dose dependent decrease"}]}
